According to patent EP4585599A1, “NITROGEN-CONTAINING FUSED RING COMPOUND, INTERMEDIATE THEREOF, PREPARATION METHOD THEREFOR AND USE THEREOF” (Hangzhou Synrx Therapeutics Biomedical Technology Co., Ltd., priority 2022, dated 2024):
Values joined by “and” are separate entries in the source; they are usually repeats but may differ in a detail not shown here. Identical values can stand only once. Like-named read-outs stand apart in the source and are kept apart here.

Assays:
cells = settings: Homo sapiens, DLD-1, 240 h
[1] = target: T1, helicase domain of the Pol θ protein (Homo sapiens, UniProt O75417); experiment: Biochemical Activity Assay (ADP Glo Assay) of Pol θ inhibitor, ATPase activity
T1 construct: The helicase domain of the Pol θ protein was purified from insect protein expression system; made in house; host or cells: insect protein expression system
T1 sequence (O75417 102-554 limits assumed): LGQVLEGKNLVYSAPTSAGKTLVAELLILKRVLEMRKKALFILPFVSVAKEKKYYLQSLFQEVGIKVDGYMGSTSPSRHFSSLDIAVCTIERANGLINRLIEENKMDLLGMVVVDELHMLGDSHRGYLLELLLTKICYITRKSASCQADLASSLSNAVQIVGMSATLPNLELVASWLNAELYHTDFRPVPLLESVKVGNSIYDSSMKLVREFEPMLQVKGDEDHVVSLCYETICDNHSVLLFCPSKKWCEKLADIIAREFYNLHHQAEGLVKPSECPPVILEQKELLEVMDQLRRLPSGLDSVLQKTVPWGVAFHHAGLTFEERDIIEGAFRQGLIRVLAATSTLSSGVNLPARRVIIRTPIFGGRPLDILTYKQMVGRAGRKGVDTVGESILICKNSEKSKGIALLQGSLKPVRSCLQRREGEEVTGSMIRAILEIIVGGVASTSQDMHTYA

[2] = read-out: Cell viability assay IC50 (nM), CTG assay, CellTiter Glo, read on Day 10, cell line not given
[3] = read-out: Cell viability assay IC50 (nM), CTG on Day 10, cell line not given (method: DLD1 and DLD1^-/- cells)
[4] = ADP-Glo assay, ATPase activity of Pol θ helicase domain, ssDNA substrate, read-out: Biochemical assay IC50
[5] = ADP-Glo, ssDNA substrate, 60 min at room temperature, read-out: Biochemical assay IC50
[6] = read-out: Biochemical assay IC50

| SMILES | IC50 (cells; [2]) [nM] | IC50 [1, 4] [nM] | other results |
| --- | --- | --- | --- |
| COc1cccc(F)c1-c1cc(C)ncc1C(=O)Nc1nc2ccc(C3=CCC(O)CC3)nc2s1 (stereo not drawn) [Example 5] | 153 | 81.5 | IC50 (cells; [3]): 100 to 500 nM; IC50 [1, 5]: 50 to 200 nM |
| COc1cnc(Cl)cc1-c1cc(C)ncc1C(=O)Nc1nc2cc(C3CCC(O)CC3)cnc2s1 (stereo not drawn) [Example 35] | 3290 | 251 | IC50 (cells; [3]): > 1000 nM; IC50 [1, 5]: 200 to 500 nM |
| COc1cnc(Cl)cc1-c1cc(C)ncc1C(=O)Nc1nc2ccc(N3CCN(C)CC3)nc2s1 [Example 43, 2'-chloro-5'-methoxy-6-methyl-N-(5-(4-methylpiperazin-1-yl)thiazol[5,4-b]pyridin-2-yl)-[4,4'-bipyridine]-3-carboxamide] | – | – | IC50 ([1]; Biochemical assay IC50 (nM)): 50 to 200 nM and 51.9 nM |
| COc1cnc(Cl)cc1-c1cc(C)ncc1C(=O)Nc1nc2ncc(-c3ccc(P(C)(C)=O)cc3)cc2s1 [Example 75, 2'-chloro-N-(6-(4-(dimethylphosphoryl)phenyl)thiazolo[4,5-b]pyridin-2-yl)-5'-methoxy-6-methyl-[4,4'-bipyridine]-3-carboxamide] | 681 | 2.51 | IC50 (cells; [3]): 500 to 1000 nM; IC50 [1, 5]: < 50 nM |
| COc1cnc(Cl)cc1-c1cc(C)ncc1C(=O)Nc1nc2cnc(-c3c(F)cnn3C)cc2s1 [Example 154] | 17.8 | 2.36 | – |
| Cc1cc(-c2c(F)cccc2OC(F)F)c(C(=O)Nc2nc3ccc(C4=CCC(O)CC4)nc3s2)cn1 (stereo not drawn) [Example 7] | 73.6 | 26.4 | IC50 (cells; [3]): < 100 nM; IC50 [1, 5]: < 50 nM |
| COc1cnc(Cl)c(F)c1-c1cc(C)ncc1C(=O)Nc1nc2ncc(N3CCC(O)CC3)cc2s1 [Example 127] | 15.8 | 3.52 | – |
| COc1cnc(Cl)cc1-c1cc(C)ncc1C(=O)Nc1nc2ccc(N3CCOCC3=O)nc2s1 [Example 202] | 38.8 | 6.11 | – |
| COc1cnc(Cl)cc1-c1cc(C)ncc1C(=O)Nc1nc2cnc(-c3c(C)nn(C)c3C#N)cc2s1 [Example 150] | 21.5 | 5.58 | – |
| COc1cnc(Cl)cc1-c1cc(C)ncc1C(=O)Nc1nc2ncc(C3CCOCC3)cc2s1 [Example 37] | 44.7 | 4.36 | IC50 (cells; [3]): < 100 nM; IC50 [1, 5]: < 50 nM |
| COc1cnc(Cl)c(F)c1-c1cc(C)ncc1C(=O)Nc1nc2ncc(-c3ccn(C)n3)cc2s1 [Example 17] | 103 | 8.57 | IC50 (cells; [3]): 100 to 500 nM; IC50 [1, 5]: < 50 nM |
| COc1cnc(Cl)c(F)c1-c1cc(C)ncc1C(=O)Nc1nc2ccc(C3CCC(O)CC3)cc2s1 (stereo not drawn) [Example 30] | 19.2 | 1.62 | IC50 (cells; [3]): < 100 nM; IC50 [1, 5]: < 50 nM |
| COc1cnc(Cl)cc1-c1cc(C)ncc1C(=O)Nc1nc2ccc(C3=CCC(O)CC3)nc2s1 (stereo not drawn) [Example 1, 2'-chloro-N-(5-(4-hydroxycyclohex-1-en-1-yl)thiazol[5,4-b]pyridin-2-yl)-5'-methoxy-6-methyl-[4,4'-bipyridine]-3-carboxamide] | – | – | IC50 ([1]; Biochemical assay IC50 (nM)): < 50 nM and 7.07 nM |
| COc1cnc(Cl)c(F)c1-c1cc(C)ncc1C(=O)Nc1nc2cnc(-c3c(C)cnn3C)cc2s1 [Example 210] | < 1.52 | 2.43 | – |
| COc1cnc(Cl)cc1-c1cc(C)ncc1C(=O)Nc1nc2ccc(C3=CCN(C)CC3)nc2s1 [Example 10] | 446 | 33.1 | IC50 (cells; [3]): 100 to 500 nM; IC50 [1, 5]: < 50 nM |
| COc1cnc(Cl)cc1-c1cc(C)ncc1C(=O)Nc1nc2cc[nH]c2s1 [Example 90, 2'-chloro-5'-methoxy-6-methyl-N-(4H-pyrrolo[3,2-d]thiazol-2-yl)-[4,4'-bipyridine]-3-car boxamide] | – | – | IC50 (cells; [3]): > 1000 nM; IC50 [1, 5]: > 500 nM |
| COc1cnc(Cl)cc1-c1cc(C)ncc1C(=O)Nc1nc2ncc(N3CCC(NS(C)(=O)=O)CC3)cc2s1 [Example 68] | 1120 | 1.39 | IC50 (cells; [3]): > 1000 nM; IC50 [1, 5]: < 50 nM |
| COc1cnc(Cl)cc1-c1cc(C)ncc1C(=O)Nc1nc2ncc(N3CC[C@@H](O)[C@H](F)C3)cc2s1 [Example 101] | 389 | 3.78 | IC50 (cells; [3]): 100 to 500 nM; IC50 [1, 5]: < 50 nM |
| COc1cnc(C(F)F)cc1-c1cc(C)ncc1C(=O)Nc1nc2cnc(N3CC4(CC(O)C4)C3)nc2s1 [Example 199] | 31.6 | 7.82 | – |

| SMILES | IC50 (cells; [2]) [nM] | IC50 [1, 4] [nM] | other results |
| --- | --- | --- | --- |
| COc1cnc(Cl)cc1-c1cc(C)ncc1C(=O)Nc1nc2cnc(-c3c(F)cnn3CCO)cc2s1 [Example 168] | 4.46 | – | – |
| COc1cnc(Cl)c(F)c1-c1cc(C)ncc1C(=O)Nc1nc2cccnc2s1 [Example 38, 2'-chloro-3'-fluoro-5'-methoxy-6-methyl-N-(thiazol[5,4-b]pyridin-2-yl)-[4,4'-bipyridine]-3-carboxamide] | – | – | IC50 ([1]; Biochemical assay IC50 (nM)): < 50 nM and 17.3 nM |
| [2H]C([2H])([2H])Oc1cnc(Cl)cc1-c1cc(C([2H])([2H])[2H])ncc1C(=O)Nc1nc2cnc(-c3c(C)nnn3C)c(F)c2s1 [Example 231, 2'-chloro-N-(6-(1,4-dimethyl-1H-1,2,3-triazol-5-yl)-7-fluorothiazolo[4,5-c]pyridin-2-yl)-5'-(methoxy-d3)-6-(methyl-d3)-[4,4'-bipyridine]-3-carboxamide] | – | 3.08 | – |
| COc1ccccc1-c1cnncc1C(=O)Nc1nc2ccc(-c3ccn[nH]3)nc2s1 [Comparative Example 2, reference compound] | – | 307 | – |
| COc1cnc(C(F)F)cc1-c1cc(N2CCN(C)C3(CC3)C2=O)ncc1C(=O)Nc1nc2cnc(-c3c(C)nnn3C)cc2s1 [Example 197] | – | – | IC50 [1, 6]: 8.57 nM |
| COc1cnc(Cl)cc1-c1cc(C)ncc1C(=O)Nc1nc2cnc(-c3c(C)nnn3C)c(C#N)c2s1 [Example 228, 2'-chloro-N-(7-cyano-6-(1,4-dimethyl-1H-1,2,3-triazol-5-yl)thiazolo[4,5-c]pyridin-2-yl)-5'-methoxy-6-methyl-[4,4'-bipyridine]-3-carboxamide] | – | 111 | – |
| COc1cnc(Cl)cc1-c1cc(C)ncc1C(=O)Nc1nc2cnc(-c3ncon3)cc2s1 [Example 181, N-(6-(1,2,4-oxadiazol-3-yl)thiazolo[4,5-c]pyridin-2-yl)-2'-chloro-5'-methoxy-6-methyl-[4,4'-bipyridine]-3-carboxamide] | – | 6.71 | – |
| COc1cnc(Cl)cc1-c1cc(C)ncc1C(=O)Nc1nc2cnc(-c3c(C)nnn3C)c(C)c2s1 [Example 233, 2'-chloro-N-(6-(1,4-dimethyl-1H-1,2,3-triazol-5-yl)-7-methylthiazolo[4,5-c]pyridin-2-yl) -5'-methoxy-6-methyl-[4,4'-bipyridine]-3-carboxamide] | – | 8.58 | – |
| COc1cnc(Cl)cc1-c1cc(C)ncc1C(=O)Nc1nc2cnc(-c3c(C)nnn3C)c(OC)c2s1 [Example 229, 2'-chloro-N-(6-(1,4-dimethyl-1H-1,2,3-triazol-5-yl)-7-methoxythiazolo[4,5-c]pyridin-2-yl)-5'-methoxy-6-methyl-[4,4'-bipyridine]-3-carboxamide] | – | 36.7 | – |
| COc1cnc(Cl)cc1-c1cc(C)ncc1C(=O)Nc1nc2c(s1)CN(c1ccc(Cl)cn1)CC2 [Example 92, 2'-chloro-N-(5-(5-chloropyridin-2-yl)-4,5,6,7-tetrahydrothiazol[5,4-c]pyridin-2-)-5'-methoxy-6-methyl-[4,4'-bipyridine]-3-carboxamide] | – | – | IC50 ([1]; Biochemical assay IC50 (nM)): 50 to 200 nM and 59.9 nM |
| COc1cnc(C(F)F)cc1-c1cc(C)ncc1C(=O)Nc1nc2cnc(-c3c(F)cnn3C)cc2s1 [Example 173] | – | 2.93 | – |
| [2H]C([2H])([2H])Oc1cnc(Cl)cc1-c1cc(C)ncc1C(=O)Nc1nc2cnc(-c3c(C)nnn3C)c(F)c2s1 [Example 230, 2'-chloro-N-(6-(1,4-dimethyl-1H-1,2,3-triazol-5-yl)-7-fluorothiazolo[4,5-c]pyridin-2-yl)-5'-(methoxy-d3)-6-methyl-[4,4'-bipyridine]-3-carboxamide] | – | 2.84 | – |
| COc1cnc(Cl)c(F)c1-c1cc(C)ncc1C(=O)Nc1nc2c(s1)CN(CC1CCOC1)CC2 (stereo not drawn) [Example 40, 2'-chloro-3'-fluoro-5'-methoxy-6-methyl-N-(5-((tetrahydrofuran-3-yl)methyl)-4,5,6,7-hexahydrothiazolo[5,4-c]pyridin-2-yl)-[4,4'-bipyridine]-3-carboxamide] | – | – | IC50 ([1]; Biochemical assay IC50 (nM)): 50 to 200 nM and 14.9 nM |
| COc1cnc(Cl)cc1-c1cc(C)ncc1C(=O)Nc1nc2ccc(-c3ccc(Cl)cn3)nc2s1 [Example 44, 2'-chloro-N-(5-(5-chloropyridin-2-yl)thiazol[5,4-b]pyridin-2-yl)-5'-methoxy-6-methyl-[4, 4'-bipyridine]-3-carboxamide] | – | – | IC50 ([1]; Biochemical assay IC50 (nM)): < 50 nM and 5.81 nM |
| COc1cnc(C(F)F)cc1-c1cc(C)ncc1C(=O)Nc1nc2cnc(-c3c(C)cnn3C)cc2s1 [Example 174] | – | 2.93 | – |
| COc1cnc(Cl)cc1-c1cc(C)ncc1C(=O)Nc1nc2c(C(=O)O)cc(-c3c(C)cnn3C)cc2s1 [Example 164] | – | 8.32 | – |
| COc1cnc(Cl)cc1-c1cc(C)ncc1C(=O)Nc1nc2cnc(C3=CC[C@H](O)CC3)cc2s1 [Example 114, (R)-2'-chloro-N-(6-(4-hydroxycyclohex-1-en-1-yl)thiazolo[4,5-c]pyridin-2-yl)-5'-methoxy-6-methyl-[4.4'-bipyridine]-3-carboxamide] | – | – | IC50 ([1]; Biochemical assay IC50 (nM)): < 50 nM and 3.98 nM |
| [2H]C1(O)CCN(c2ccc3nc(NC(=O)c4cnc(C)cc4-c4cc(Cl)ncc4OC)sc3n2)CC1 [Example 112, 2'-chloro-N-(5-(4-hydroxypiperidin-1-yl-4-deuterium)thiazol[5,4-b]pyridin-2-yl)-5'-met hoxy-6-methyl-[4,4'-bipyridine]-3-carboxamide] | – | – | IC50 ([1]; Biochemical assay IC50 (nM), ADP-Glo assay, ATPase activity of Pol θ helicase domain, ssDNA substrate): 10 nM |
| COc1cnc(Cl)cc1-c1cc(C)ncc1C(=O)Nc1nc2nc(F)c(-c3c(C)nnn3C)cc2s1 [Example 232] | – | – | IC50 [1, 6]: 2.51 nM |
